Measured values published in PMC7966987, “Insights into the catalytic properties of the mitochondrial rhomboid protease PARL” (The Journal of Biological Chemistry, 2021).
Values joined by “and” are separate entries in the source; they are usually repeats but may differ in a detail not shown here. Identical values can stand only once. “Also recorded” adds a separate entry of the source.

Assays:
Type in all cases: biochemical
PARLΔ77 [1] = molecular target: T1, PARLΔ77 (Homo sapiens, UniProt Q9H300); assay: IQ-peptide substrate cleavage kinetics, β-cleavage PARLΔ77 in detergent; conditions: PARLΔ77 0.8 μM in 0.1% DDM with CL, 50 mM Tris-HCl pH 7.0, 150 mM NaCl, 10% glycerol, 5% DMSO, 37 °C, fluorescence; mean ± SEM
T1 construct: GFP-hexahistidine (behind a TEV cleavage site) (C, cleaved yes); made in house; host or cells: Pichia pastoris
T1 sequence (Q9H300 78-379): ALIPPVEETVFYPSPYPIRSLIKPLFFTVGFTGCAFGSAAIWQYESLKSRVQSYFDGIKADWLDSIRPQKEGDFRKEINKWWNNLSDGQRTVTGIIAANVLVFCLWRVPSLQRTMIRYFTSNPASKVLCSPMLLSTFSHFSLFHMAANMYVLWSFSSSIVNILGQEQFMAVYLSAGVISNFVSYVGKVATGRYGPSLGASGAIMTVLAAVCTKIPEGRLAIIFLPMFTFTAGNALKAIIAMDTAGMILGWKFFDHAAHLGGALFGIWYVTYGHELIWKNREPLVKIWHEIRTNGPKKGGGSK
Excerpt: (§1) To further evaluate the cleavage of other known substrates of PARL, we adopted a more facile system to examine cleavage of multiple substrates and generated internally quenched (IQ) peptide substrates ([25], [36], [37], [38]) based on the amino acids flanking the PARL cleavage sites of PINK1 ([39]), PGAM5 ([8]), and Smac/Diablo ([11]). […] The assay allowed us to determine the catalytic parameters for the three primary PARL substrates and examine the substrate specificity (Fig. 2, Tables S2–S4).
(§2) Assays with FRET-PINK1^70–134 were conducted as previously described ([26]). For EDANS/Dabcyl 10-mer IQ peptides (PINK1, PGAM5, Smac/Diablo), lyophilized peptides were initially dissolved in DMSO to obtain a stock solution. The IQ peptide substrates in a concentration range of 0.1–70 μM were incubated with activity assay buffer (50 mM Tris-HCl pH 7.0, 150 mM NaCl, 10% glycerol, 0.1% DDM) in a 384-well black-bottomed plate at 37 °C for 30 min in a multiwell plate reader (SynergyMx, BioTek). For all concentrations of IQ peptide, the DMSO was kept constant at 5%. Following preincubation, PARL was added to a final concentration of 0.8 μM to initiate the cleavage reaction. Fluorescence readings were taken every 3 min over a 3 h time course at ƛex = 336 nm and ƛem = 490 nm. The initial velocity was determined from the fluorescence readings over the time course. For each substrate concentration, a no-enzyme control was subtracted to eliminate background fluorescence changes not related to substrate cleavage. Relative fluorescence units were converted to concentration (μM) by determining the maximum change in fluorescence observed for each substrate concentration when fully digested. GraphPad Prism software was used for Michaelis–Menten analysis of kinetic curves. All kinetic data were obtained using at least three biological replicates (different enzyme preparations) with technical duplicates for each experiment. For kinetic measurements in detergent with all three substrates, the activity assays were repeated at least five times. In addition, after each protease purification, the quality control of purified PARL was controlled by measuring its enzymatic activity. Minimum of three experimental replicates with two technical replicates were used for data analysis.

human PARLΔ77 = assay: as above; conditions: for fold change Km/kcat, PARLΔ77/PARLΔ55 / fold change kcat, PARLΔ77/PARLΔ55: PARL in DDM; for turnover rate with PARLΔ77 compared with PARLΔ55 / ranking of substrate cleavage: in detergent; for ranking of substrate cleavage: PARLΔ55 and PARLΔ77, by kcat or kcat/KM
Excerpt: as §1, §2

PARLΔ77 [2] = molecular target: T1, PARLΔ77; assay: IQ-peptide substrate cleavage kinetics, PARLΔ77 in proteoliposomes; conditions: for ranking of substrate cleavage: in proteoliposomes, by kcat, KM or kcat/KM
Excerpt: To assess the activity of recombinant PARL toward known substrates in a lipid bilayer, full-length and β-truncated PARL were reconstituted in proteoliposomes (PLs) using Escherichia coli lipids that closely resemble the composition of the IMM ([31]). We determined that the EDANS/Dabcyl - FRET tags prevented incorporation of the substrates into PL; however, the substrate could still be cleaved since the active site is proposed to be near the lipid/water interface ([40], [41]) analogous to bacterial rhomboid proteases (Fig. 1). To calculate the specific activity of the protease, we quantified the fraction of PARL in the PLs with an outward facing active site using a membrane […] activity-based TAMRA-labeled fluorophosphonate probe ([42]). […] These values were used to calculate specific activity of the PARL protease. Next, we compared cleavage of three IQ-peptide substrates by reconstituted full-length mature PARLΔ55 and the β-truncated form, PARLΔ77 (Fig. 3, Tables S5 and S6).
as §2
E. coli polar lipids (Avanti), 400 μg in chloroform, were dried under nitrogen stream in a glass tube to yield a thin film of lipid. The tube was incubated overnight in a desiccator to completely remove all traces of solvent. In total, 50 μl of water and DDM detergent was added to the lipid film for resuspension at room temperature for 10 min, followed by the addition of purified PARL (400 μg) in 50 mM Tris-HCl, pH 8.0, 150 mM NaCl, 20% glycerol, 0.1% DDM, to yield the final weight ratio of 1 PARL:1 lipid:2 detergent. The detergent was slowly removed by the addition of SM2 Biobeads (Bio-Rad) while stirring on ice for 6 h to allow for the generation of proteoliposomes (PL); the process was controlled by the regimen of Biobead addition. To purify the PL, 50%:20% sucrose density gradient ultracentrifugation was used. A TAMRA probe (ThermoFisher) was used to determine the orientation of reconstituted PARL, which specifically and covalently labels serine residues of an enzymatically active serine protease. In total, 2 μM of TAMRA probe was added to PL samples and incubated for 1 h, allowing the TAMRA probe to label only the outward-facing accessible active sites. […]

| Substance | Km (PARLΔ77 [1]) | kcat (turnover rate) (PARLΔ77 [1]) | kcat/KM (catalytic efficiency) (PARLΔ77 [1]) | fold change Km/kcat, PARLΔ77/PARLΔ55 (human PARLΔ77) | fold change kcat, PARLΔ77/PARLΔ55 (human PARLΔ77) | turnover rate with PARLΔ77 compared with PARLΔ55 (human PARLΔ77) | ranking of substrate cleavage (human PARLΔ77) | ranking of substrate cleavage (PARLΔ77 [2]) | turnover rate with PARLΔ77 compared with PARLΔ55 (human PARLΔ77; listed as IQ-Smac/Diablo) | turnover rate with PARLΔ77 compared with PARLΔ55 (human PARLΔ77; listed as Smac/Diablo) | turnover rate (PARLΔ77 [2]; PARLΔ77 in proteoliposomes) |
| --- | --- | --- | --- | --- | --- | --- | --- | --- | --- | --- | --- |
| (DABCYL)-AVFLAFGLGL-Glu(EDANS) [IQ-PINK1^99–108, internally quenched DABCYL/EDANS peptide substrate based on PINK1 PARL cleavage site] | 3.3 ± 0.5 µM | 0.000361 ± 2.8e-05 s⁻¹ | 110 ± 28 M⁻¹ s⁻¹ | 2 fold | 3 fold | increased |  |  |  |  |  |
| (DABCYL)-AVFLSAVAVG-Glu(EDANS) [IQ-PGAM5^20–29, internally quenched DABCYL/EDANS peptide substrate based on PGAM5 PARL cleavage site] | 1.6 ± 0.2 µM | 0.000272 ± 1.1e-05 s⁻¹ | 170 ± 28 M⁻¹ s⁻¹ | 0.6 fold | 2 fold | increased | most efficiently cleaved | the preferred substrate with the lowest KM and the highest catalytic efficiency; also recorded: cleaved with the highest efficiency |  |  |  |
| (DABCYL)-GVT LCAVPIA-Glu(EDANS) [IQ-Smac/Diablo^51–60, internally quenched DABCYL/EDANS peptide substrate based on Smac/Diablo PARL cleavage site] | 5 ± 1 µM | 0.000333 ± 2.8e-05 s⁻¹ | 83 ± 28 M⁻¹ s⁻¹ | 1 fold | 1 fold |  | fastest cleaved | the fastest | no significant difference | remained unchanged | 1.0 ± 0.1 min⁻¹ and 1 min⁻¹ |
